Experimental data: patent US20230105212A1, “BIPHENYL DERIVATIVE INHIBITOR, PREPARATION METHOD THEREFOR AND USE THEREOF” (SHANGHAI HANSOH BIOMEDICAL CO., LTD., priority 2020, published 2023)
Where two headings read alike, the source gives them in different places.

Legend:
[1] = system: CHO-PDL1/Jurkat-PD1 cell pathway; experiment: Inhibition of CHO-PDL1/Jurkat-PD1 cell pathway (NFAT luciferase reporter); type: cell-based; conditions: for EC50: 6 hours incubation, luciferase signal; for maximal fold induction: relative to the signal value of the non-dosed group, read-out: Maximum induction fold
Method: Test Embodiment 3. Inhibitory Effect of the Compounds of the Present Disclosure on CHO-PDL1/Jurkat-PD1 Cell Pathway
Experimental purpose: The purpose of this test embodiment was to test the inhibitory effect of compounds on the CHO-PDL1/Jurkat-PD1 cell pathway.
Experimental method: Two stably transfected cell lines were included in this experiment, CHO-K1 cells stably transfected with PD-L1 and Jurkat cells stably transfected with PD-1 and NFAT luciferase reporter genes. Compounds were incubated with the two cell lines. Then, due to the inhibitory effect on the PD-1/PD-L1 pathway, the activation degree of Jurkat cells changed, so that the level of the reporter gene NFAT in the downstream of Jurkat cells changed, and the level of NFAT was characterized by detecting the signal value of luciferase, so that the inhibitory effect of the test compound on CHO-PDL1/Jurkat-PD1 pathway was characterized.
CHO-PDL1 cells (Promega, #J1252) were cultured to a suitable cell density. After digestion, the cells were resuspended by complete medium to become a suitable density of cell suspension. The cell suspension was plated 100 μL per well on a 96-well plate (Corning, #3610), and placed in a 37° C., 5% CO2 incubator and incubated overnight, and assay medium (RPMI 1640+2% FBS, RPMI 1640 Cat. No.: Gibco, #22400089, FBS Cat. No.: Gibco, #10091148) was used to prepare compound solutions of different concentrations. NFAT-luc2/PD1 Jurkat cells (Promega, #J1252) were collected and resuspended to the appropriate cell density using assay medium. The supernatant of the CHO-PDL1 cell culture plate was aspirated, and 40 μL of the prepared compound solution and 40 μL of resuspended NFAT-luc2/PD1 Jurkat cells were added, and incubated in a 5% CO2 incubator at 37° C. for 6 hours, and the cell plate was taken out, then 40 μL of One-Glo reagent (Promega, #E6120) was added to each well, shaked and mixed well, incubated in the dark at room temperature for 10 minutes, then put into a microplate reader and the luminescence program was used to read the luminescence value of the cell plate.
The EC50 value was fitted according to the compound concentration and the luminescence signal value, and the maximum induction fold of each compound relative to the signal value of the non-dosed group was calculated, as shown in Table 3.

[2] = target: T1, PD-L1 protein on the surface of MC38-hPDL1 tumor cells (Homo sapiens, UniProt Q9NZQ7); experiment: Induction of endocytosis of PD-L1 on the surface of tumor cells (flow cytometry); type: cell-based; conditions: 16 hours incubation; for Emax: MC38-hPDL1 cells, read-out: MC38 maximum endocytosis rate; for IC50: inducing endocytosis of PD-L1, MC38-hPDL1 cells, read-out: MC38 IC50
T1 construct: expressed in transfected cells; host or cells: MC38-hPDL1 (mouse colon cancer cells)
T1 sequence (Q9NZQ7 19-290): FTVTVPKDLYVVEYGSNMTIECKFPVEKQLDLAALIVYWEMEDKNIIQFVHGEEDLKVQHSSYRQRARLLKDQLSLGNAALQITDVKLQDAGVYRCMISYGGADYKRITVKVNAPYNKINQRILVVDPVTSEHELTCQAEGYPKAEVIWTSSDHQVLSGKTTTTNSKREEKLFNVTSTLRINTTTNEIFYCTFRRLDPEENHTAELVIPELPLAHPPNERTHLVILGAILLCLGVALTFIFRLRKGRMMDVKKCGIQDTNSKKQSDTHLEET
Summary of the method: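 MC38-hPDL1 mouse colon cancer cells overexpressing human PD-L1 were exposed to compound dilutions for 16 h at 37 °C. Surface PD-L1 was then stained with PE anti-human CD274 for 30 min at room temperature and measured by flow cytometry. Endocytosis rate versus concentration was fitted by nonlinear regression to give IC50.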

human PD-L1 protein = target: T2, human PD-L1 protein (Homo sapiens, UniProt Q9NZQ7); experiment: Thermal shift: melting temperature of PD-L1 protein; type: binding; conditions: read-out: ΔTm (° C.)
T2 construct: purchased Acro Biosystems PD1-H5229
T2 sequence (Q9NZQ7 19-238 limits assumed): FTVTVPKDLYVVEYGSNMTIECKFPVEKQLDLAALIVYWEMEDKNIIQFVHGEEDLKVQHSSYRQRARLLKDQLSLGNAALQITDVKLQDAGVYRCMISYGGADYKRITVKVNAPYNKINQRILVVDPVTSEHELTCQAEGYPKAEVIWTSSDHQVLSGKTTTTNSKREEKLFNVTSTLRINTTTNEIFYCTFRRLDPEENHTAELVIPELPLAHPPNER
Summary of the method: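 Human PD-L1 at 2 μM final was tested in […], 150 mM NaCl with SYPRO Orange, heated 25→95 °C at 0.03 °C/s in a PCR melt-curve run. Tm was taken per treatment; ΔTm is the shift relative to DMSO vehicle.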

[3] = Pharmacokinetics test in Balb/C mice; type: in vivo; conditions: male, mouse, po, p.o. 5 mg/kg, plasma
Method: Test Embodiment 6. Pharmacokinetics Test in Balb/C Mice
Taking Balb/C mice as the test animals, the pharmacokinetic behavior in the plasma of mice of the following compound embodiments was studied when orally administered at a dose of 5 mg/kg.
Balb/C Mouse 6/embodiment, male, Shanghai Jisijie Laboratory Animal Co., Ltd., animal production license number (SCXK (Shanghai) 2013-0006 No. 311620400001794).
0.5% HPMC (1% Tween 80), dissolved by sonication, to prepare a clear solution or a homogeneous suspension.
Balb/C mice, male; p.o. after overnight fasting, respectively, at a dose of 5 mg/kg, administered in a volume of 10 mL/kg.
Before and after administration of mice, at 0, 0.5, 1, 2, 4, 6, 8 and 24 hours, 0.1 mL of blood was collected from the orbit, placed in an EDTA-K2 test tube, and centrifuged at 6000 rpm at 4° C. for 6 min to separate the plasma, stored at −80° C.
1) 40 μL of plasma samples were added to 160 μL of acetonitrile for precipitation, mixed and centrifuged at 3500×g for 5 to 20 minutes.
2) 100 μL of the supernatant solution after treatment was taken for LC/MS/MS to analyze the concentration of the compounds to be tested.
2.6 Liquid Phase Analysis • Liquid phase condition: Shimadzu LC-20AD pump • MS conditions: AB Sciex API 4000 Mass Spectrometer • Chromatographic column: phenomenex Gemiu 5 μm C18 50×4.6 mm • Mobile phase: A solution was aqueous 0.1% formic acid solution, B solution was acetonitrile • Flow rate: 0.8 mL/min • Elution time: 0 to 4.0 minutes, the eluent was as follows:
The main parameters of pharmacokinetics were calculated with WinNonlin 8.2, and the results of the mice pharmacokinetic experiments were shown in the following table: […]

human PD-1/PD-L1 binding = target: T3, human PD-1/PD-L1 binding (Homo sapiens, UniProt Q9NZQ7); experiment: Inhibition of human PD-1/PD-L1 binding (TR-FRET/HTRF); conditions: TR-FRET, PD-L1-His and PD-1-Fc; read-out: PD-1/PD-L1 binding IC50
T3 construct: PD-L1-His protein (19 to 238 amino acids) (Abcam #ab167713); purchased Abcam (PD-L1-His); R&D (PD-1-Fc) ab167713; 1086-PD
T3 sequence (Q9NZQ7 19-238): as the sequence (Q9NZQ7 19-238 limits assumed) above
Summary of the method: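 PD-L1-His (aa 19–238, diluted to 10 nM) and PD-1-Fc (aa 25–167, diluted to 20 nM) incubated with compounds (10 μM or 1 μM top, 3-fold, 11 doses) 60 min at room temperature, then anti-6HIS Eu cryptate/anti-human IgG-XL665 added for 3 h RT or overnight 4 °C. HTRF 665/620 nm ratio gave inhibition and IC50.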

Emax [2]	IC50 [2]	ΔTm at 10 µM (human PD-L1 protein; compound 10 μM, PD-L1 protein 2 μM, Tm minus DMSO vehicle control)	MRT inf ([3]; read-out: Average residence time MRT0−∞)	AUC(0-t) ([3]; read-out: Curve area AUC0−t)	Cmax ([3]; read-out: Drug concentration in plasma Cmax)	half-life ([3]; read-out: Half life t1/2 (converted))	Tmax ([3]; read-out: Peak time tmax)	IC50 (human PD-1/PD-L1 binding)	Structure (SMILES)	EC50 [1]	maximal fold induction [1]	ΔTm at 10 µM (human PD-L1 protein)
97%	1.2 nM	24.3 °C	21.6 h	629 ng·h/mL	55 ng/mL	15.2 h	2 h		COc1nc(-c2cccc(-c3cccc(NC(=O)c4nc5c(n4C)CCN(C)C5)c3Cl)c2Cl)ccc1CN[C@@H]1CCCC[C@@H]1O [Embodiment 176, N-(2,2′-Dichloro-3′-(5-((((1R,2S)-2-hydroxycyclohexyl)amino)methyl)-6-methoxypyridin-2-yl)-[1,1′-biphenyl]-3-yl)-1,5-dimethyl-4,5,6,7-tetrahydro-1H-imidazo[4,5-c]pyridine-2-carboxamide]			
91%								8.4 nM	COc1nc(-c2cccc(-c3cccc(NC(=O)c4nc5c(n4C4CC4)CCN(C)C5)c3Cl)c2Cl)ccc1CN1CC2(C1)CN(C(C)=O)C2 [Embodiment 243, N-(3′-(5-((6-Acetyl-2,6-diazaspiro[3.3]heptan-2-yl)methyl)-6-methoxypyridin-2-yl)-2,2′-dichloro-[1,1′-biphenyl]-3-yl)-1-cyclopropyl-5-methyl-4,5,6,7-tetrahydro-1H-imidazo[4,5-c]pyridine-2-carboxamide]	74 nM	3.1	
97%	1.4 nM							2 nM	COc1cc(C(=O)Nc2cccc(-c3cccc(NC(=O)c4nc5c(n4C)CCN(C)C5)c3Cl)c2C)ncc1CNCCNC(C)=O [Embodiment 40, N-(3′-(5-(((2-Acetylaminoethyl)amino)methyl)-4-methoxypicolinamido)-2-chloro-2′-methyl-[1,1′-biphenyl]-3-yl)-1,5-dimethyl-4,5,6,7-tetrahydro-1H-imidazo[4,5-c]pyridine-2-carboxamide]	75 nM	4	
88%	6.5 nM								COc1cc(NCc2cnc(C(=O)Nc3cccc(-c4cccc(NC(=O)c5nc6c(n5C)CCN(CCO)C6)c4Cl)c3C)cc2OC)ccn1 [Embodiment 72, N-(2-Chloro-3′-(4-methoxy-5-(((2-methoxypyridin-4-yl)amino)methyl)picolinamido)-2′-methyl-[1,1′-biphenyl]-3-yl)-5-(2-hydroxyethyl)-1-methyl-4,5,6,7-tetrahydro-1H-imidazo[4,5-c]pyridine-2-carboxamide]	73 nM	3.1	
97%	0.6 nM							1.5 nM	COc1cc(C(=O)Nc2cccc(-c3cccc(NC(=O)c4nc5c(n4C)CCN(C)C5)c3Cl)c2C)ncc1CNCCO [Embodiment 37, N-(2-Chloro-3′-(5-(((2-hydroxyethyl)amino)methyl)-4-methoxypicolinamido)-2′-methyl-[1,1′-biphenyl]-3-yl)-1,5-dimethyl-4,5,6,7-tetrahydro-1H-imidazo[4,5-c]pyridine-2-carboxamide]	63 nM	4.8	

Continued, compound first:

Structure (SMILES)	Emax [2]	IC50 [2]	ΔTm at 10 µM (human PD-L1 protein; compound 10 μM, PD-L1 protein 2 μM, Tm minus DMSO vehicle control)	MRT inf ([3]; read-out: Average residence time MRT0−∞)	AUC(0-t) ([3]; read-out: Curve area AUC0−t)	Cmax ([3]; read-out: Drug concentration in plasma Cmax)	half-life ([3]; read-out: Half life t1/2 (converted))	Tmax ([3]; read-out: Peak time tmax)	IC50 (human PD-1/PD-L1 binding)	EC50 [1]	maximal fold induction [1]	ΔTm at 10 µM (human PD-L1 protein)
COc1cc(C(=O)Nc2cccc(-c3cccc(NC(=O)c4nc5c(n4C)CCN(C)C5)c3Cl)c2C)ncc1CN1CC[C@H](F)C1 [Embodiment 26, (S)—N-(2-Chloro-3′-(5-((3-fluoropyrrolidin-1-yl)methyl)-4-methoxypicolinamido)-2′-methyl-[1,1′-biphenyl]-3-yl)-1,5-dimethyl-4,5,6,7-tetrahydro-1H-imidazo[4,5-c]pyridine-2-carboxamide]										90 nM	3.9	
COc1cc(C(=O)Nc2cccc(-c3cccc(NC(=O)c4nc5c(n4C)CCN(C)C5)c3Cl)c2C)ncc1CNC1COC1 [Embodiment 36, N-(2-Chloro-3′-(4-methoxy-5-((oxetan-3-ylamino)methyl)picolinamido)-2′-methyl-[1,1′-biphenyl]-3-yl)-1,5-dimethyl-4,5,6,7-tetrahydro-1H-imidazo[4,5-c]pyridine-2-carboxamide]	94%	3.1 nM							5 nM	93 nM	3.1	
COc1cc(C(=O)Nc2cccc(-c3cccc(NC(=O)c4nc5c(n4C)CCN(C)C5)c3Cl)c2C)ncc1CNc1ccnc(C)c1F [Embodiment 6, N-(2-Chloro-3′-(5-(((3-fluoro-2-methylpyridin-4-yl)amino)methyl)-4-methoxypicolinamido)-2′-methyl-[1,1′-biphenyl]-3-yl)-1,5-dimethyl-4,5,6,7-tetrahydro-1H-imidazo[4,5-c]pyridine-2-carboxamide]	93%	1.1 nM								60 nM	3.3	
CCN1CCc2c(nc(C(=O)Nc3cccc(-c4cccc(NC(=O)c5cc(OC)c(CNc6ccnc(C)c6F)cn5)c4C)c3Cl)n2C)C1 [Embodiment 78, N-(2-Chloro-3′-(5-(((3-fluoro-2-methylpyridin-4-yl)amino)methyl)-4-methoxypicolinamido)-2′-methyl-[1,1′-biphenyl]-3-yl)-5-ethyl-1-methyl-4,5,6,7-tetrahydro-1H-imidazo[4,5-c]pyridine-2-carboxamide]										68 nM	2.8	
COc1nc(-c2cccc(-c3cccc(NC(=O)c4nc5c(n4C)CCN(C)C5)c3Cl)c2Cl)ccc1CN1CC[C@H]1C(=O)O [Embodiment 171, (S)-1-((6-(2,2′-Dichloro-3′-(1,5-dimethyl-4,5,6,7-tetrahydro-1H-imidazo[4,5-c]pyridine-2-carboxamido)-[1,1′-biphenyl]-3-yl)-2-methoxypyridin-3-yl)methyl)azetidine-2-carboxylic acid]	93%								0.9 nM			10.3 °C
